Assay results taken from patent publication US12502362B2, “Inhibitors of nucleotidyltransferase superfamily enzymes as antibiotics” (priority 2017, dated 2025).
Like-named read-outs stand apart in the source and are kept apart here.

What was measured:
[1] = system: Coagulase negative Staphylococcus; experiment: Antibiotic susceptibility of coagulase negative Staphylococcus strains; assay type: cell-based
[2] = system: S. aureus ATCC strains and MRSA; assay type: cell-based, Staphylococcus aureus
[3] = system: Staphylococcus epidermidis; assay type: cell-based; on FOX screen: key: POS: cefoxitin-screen positive (resistant to cefoxitin)
Protocol: (§1) It was also tested whether compounds #63 and #285 can inhibit other coagulase-negative Staphylococcus (CNS) including S. epidermidis, S. hominis, etc. […].

Staphylococcus hominis = assay type: cell-based
Protocol: as §1

[4] = CNS1 (Coagulase negative Staphylococcus)
[5] = CNS2 (Coagulase negative Staphylococcus)
[6] = Se1 (Staphylococcus epidermidis)
[7] = Se2 (Staphylococcus epidermidis)
[8] = Se3 (Staphylococcus epidermidis)
[9] = Se4 (Staphylococcus epidermidis)
[10] = Se5 (Staphylococcus epidermidis)

## CO[C@@]1(NC(=O)Cc2cccs2)C(=O)N2C(C(=O)O)=C(COC(N)=O)CS[C@@H]21 [FOX, Cefoxitin]
[1]; [4]
  FOX screen: POS
[1]; [5]
  FOX screen: POS
[2]; S. aureus ATCC 25923
  FOX screen: Neg
[2]; S. aureus ATCC 29213
  FOX screen: Neg
[2]; S. aureus ATCC BAA 976
  FOX screen: POS
[2]; S. aureus ATCC BAA 977
  FOX screen: Neg
[2]; S. aureus ATCC BAA 1026
  FOX screen: POS
[2]; Sa1 (MRSA)
  FOX screen: POS
[2]; Sa2 (MRSA)
  FOX screen: POS
[2]; Sa3 (MRSA)
  FOX screen: POS
[2]; Sa6 (MRSA)
  FOX screen: POS
[2]; Sa7 (MRSA)
  FOX screen: POS
[2]; Sa9 (MRSA)
  FOX screen: POS
[2]; Sa11 (MRSA)
  FOX screen: POS
[2]; Sa12 (MRSA)
  FOX screen: POS
[2]; Sa14 (MRSA)
  FOX screen: POS
[2]; Sa15 (MRSA)
  FOX screen: POS
[2]; Sa16 (MRSA)
  FOX screen: POS
[2]; Sa17 (MRSA)
  FOX screen: POS
[2]; Sa18 (MRSA)
  FOX screen: POS
[2]; Sa19 (MRSA)
  FOX screen: POS
[2]; Sa20 (MRSA)
  FOX screen: POS
[2]; Sa21 (MRSA)
  FOX screen: POS
[2]; Sa22 (MRSA)
  FOX screen: POS
[2]; Sa23 (MRSA)
  FOX screen: POS
[3]; [6]
  FOX screen: POS
[3]; [7]
  FOX screen: POS
[3]; [8]
  FOX screen: POS
[3]; [9]
  FOX screen: POS
[3]; [10]
  FOX screen: POS
Staphylococcus hominis; Sh1 (Staphylococcus hominis)
  FOX screen: POS
Staphylococcus hominis; Sh2 (Staphylococcus hominis)
  FOX screen: POS
Staphylococcus hominis; Sh3 (Staphylococcus hominis)
  FOX screen: POS

## CC(=O)NC[C@H]1CN(c2ccc(N3CCOCC3)c(F)c2)C(=O)O1 [LZD, linezolid]
[1]; [4]
  Antibiotic susceptibility: S
[1]; [5]
  Antibiotic susceptibility: S
[2]; S. aureus ATCC 25923
  Antibiotic susceptibility: S
[2]; S. aureus ATCC 29213
  Antibiotic susceptibility: S
[2]; S. aureus ATCC BAA 976
  Antibiotic susceptibility: S
[2]; S. aureus ATCC BAA 977
  Antibiotic susceptibility: S
[2]; S. aureus ATCC BAA 1026
  Antibiotic susceptibility: S
[2]; Sa1 (MRSA)
  Antibiotic susceptibility: S
[2]; Sa2 (MRSA)
  Antibiotic susceptibility: S
[2]; Sa3 (MRSA)
  Antibiotic susceptibility: S
[2]; Sa5 (MRSA)
  Antibiotic susceptibility: S
[2]; Sa6 (MRSA)
  Antibiotic susceptibility: S
[2]; Sa7 (MRSA)
  Antibiotic susceptibility: S
[2]; Sa8 (MRSA)
  Antibiotic susceptibility: S
[2]; Sa9 (MRSA)
  Antibiotic susceptibility: S
[2]; Sa10 (MRSA)
  Antibiotic susceptibility: S
[2]; Sa11 (MRSA)
  Antibiotic susceptibility: S
[2]; Sa12 (MRSA)
  Antibiotic susceptibility: S
[2]; Sa14 (MRSA)
  Antibiotic susceptibility: S
[2]; Sa15 (MRSA)
  Antibiotic susceptibility: S
[2]; Sa16 (MRSA)
  Antibiotic susceptibility: S
[2]; Sa17 (MRSA)
  Antibiotic susceptibility: S
[2]; Sa18 (MRSA)
  Antibiotic susceptibility: S
[2]; Sa19 (MRSA)
  Antibiotic susceptibility: S
[2]; Sa20 (MRSA)
  Antibiotic susceptibility: S
[2]; Sa21 (MRSA)
  Antibiotic susceptibility: S
[2]; Sa22 (MRSA)
  Antibiotic susceptibility: S
[2]; Sa23 (MRSA)
  Antibiotic susceptibility: S
[3]; [6]
  Antibiotic susceptibility: S
[3]; [7]
  Antibiotic susceptibility: S
[3]; [8]
  Antibiotic susceptibility: S
[3]; [9]
  Antibiotic susceptibility: S
[3]; [10]
  Antibiotic susceptibility: S
Staphylococcus hominis; Sh1 (Staphylococcus hominis)
  Antibiotic susceptibility: S
Staphylococcus hominis; Sh2 (Staphylococcus hominis)
  Antibiotic susceptibility: S
Staphylococcus hominis; Sh3 (Staphylococcus hominis)
  Antibiotic susceptibility: S

## COc1c(N2C[C@@H]3CCCN[C@@H]3C2)c(F)cc2c(=O)c(C(=O)O)cn(C3CC3)c12 [MXF, moxifloxacin]
[1]; [4]
  Antibiotic susceptibility: S
[1]; [5]
  Antibiotic susceptibility: R
[2]; S. aureus ATCC 25923
  Antibiotic susceptibility: S
[2]; S. aureus ATCC 29213
  Antibiotic susceptibility: S
[2]; S. aureus ATCC BAA 976
  Antibiotic susceptibility: S
[2]; S. aureus ATCC BAA 977
  Antibiotic susceptibility: S
[2]; S. aureus ATCC BAA 1026
  Antibiotic susceptibility: I
[2]; Sa1 (MRSA)
  Antibiotic susceptibility: R
[2]; Sa2 (MRSA)
  Antibiotic susceptibility: I
[2]; Sa3 (MRSA)
  Antibiotic susceptibility: I
[2]; Sa5 (MRSA)
  Antibiotic susceptibility: R
[2]; Sa6 (MRSA)
  Antibiotic susceptibility: R
[2]; Sa7 (MRSA)
  Antibiotic susceptibility: S
[2]; Sa8 (MRSA)
  Antibiotic susceptibility: R
[2]; Sa9 (MRSA)
  Antibiotic susceptibility: R
[2]; Sa10 (MRSA)
  Antibiotic susceptibility: R
[2]; Sa11 (MRSA)
  Antibiotic susceptibility: R
[2]; Sa12 (MRSA)
  Antibiotic susceptibility: I
[2]; Sa14 (MRSA)
  Antibiotic susceptibility: I
[2]; Sa15 (MRSA)
  Antibiotic susceptibility: R
[2]; Sa16 (MRSA)
  Antibiotic susceptibility: I
[2]; Sa17 (MRSA)
  Antibiotic susceptibility: R
[2]; Sa18 (MRSA)
  Antibiotic susceptibility: I
[2]; Sa19 (MRSA)
  Antibiotic susceptibility: S
[2]; Sa20 (MRSA)
  Antibiotic susceptibility: I
[2]; Sa21 (MRSA)
  Antibiotic susceptibility: S
[2]; Sa22 (MRSA)
  Antibiotic susceptibility: S
[2]; Sa23 (MRSA)
  Antibiotic susceptibility: S
[3]; [6]
  Antibiotic susceptibility: R
[3]; [7]
  Antibiotic susceptibility: S
[3]; [8]
  Antibiotic susceptibility: R
[3]; [9]
  Antibiotic susceptibility: R
[3]; [10]
  Antibiotic susceptibility: R
Staphylococcus hominis; Sh1 (Staphylococcus hominis)
  Antibiotic susceptibility: R
Staphylococcus hominis; Sh2 (Staphylococcus hominis)
  Antibiotic susceptibility: S
Staphylococcus hominis; Sh3 (Staphylococcus hominis)
  Antibiotic susceptibility: S

## Cc1onc(-c2ccccc2)c1C(=O)N[C@@H]1C(=O)N2[C@@H]1SC(C)(C)[C@@H]2C(=O)O [OXA, Oxacillin]
[1]; [4]
  Antibiotic susceptibility: R
[1]; [5]
  Antibiotic susceptibility: R
[2]; S. aureus ATCC 25923
  Antibiotic susceptibility: S
[2]; S. aureus ATCC 29213
  Antibiotic susceptibility: S
[2]; S. aureus ATCC BAA 976
  Antibiotic susceptibility: R
[2]; S. aureus ATCC BAA 977
  Antibiotic susceptibility: S
[2]; S. aureus ATCC BAA 1026
  Antibiotic susceptibility: R
[2]; Sa1 (MRSA)
  Antibiotic susceptibility: R
[2]; Sa2 (MRSA)
  Antibiotic susceptibility: R
[2]; Sa3 (MRSA)
  Antibiotic susceptibility: R
[2]; Sa5 (MRSA)
  Antibiotic susceptibility: R
[2]; Sa6 (MRSA)
  Antibiotic susceptibility: R
[2]; Sa7 (MRSA)
  Antibiotic susceptibility: R
[2]; Sa8 (MRSA)
  Antibiotic susceptibility: R
[2]; Sa9 (MRSA)
  Antibiotic susceptibility: R
[2]; Sa10 (MRSA)
  Antibiotic susceptibility: R
[2]; Sa11 (MRSA)
  Antibiotic susceptibility: R
[2]; Sa12 (MRSA)
  Antibiotic susceptibility: R
[2]; Sa14 (MRSA)
  Antibiotic susceptibility: R
[2]; Sa15 (MRSA)
  Antibiotic susceptibility: R
[2]; Sa16 (MRSA)
  Antibiotic susceptibility: R
[2]; Sa17 (MRSA)
  Antibiotic susceptibility: R
[2]; Sa18 (MRSA)
  Antibiotic susceptibility: R
[2]; Sa19 (MRSA)
  Antibiotic susceptibility: R
[2]; Sa20 (MRSA)
  Antibiotic susceptibility: R
[2]; Sa21 (MRSA)
  Antibiotic susceptibility: R
[2]; Sa22 (MRSA)
  Antibiotic susceptibility: R
[2]; Sa23 (MRSA)
  Antibiotic susceptibility: R
[3]; [6]
  Antibiotic susceptibility: R
[3]; [7]
  Antibiotic susceptibility: R
[3]; [8]
  Antibiotic susceptibility: R
[3]; [9]
  Antibiotic susceptibility: R
[3]; [10]
  Antibiotic susceptibility: R
Staphylococcus hominis; Sh1 (Staphylococcus hominis)
  Antibiotic susceptibility: R
Staphylococcus hominis; Sh2 (Staphylococcus hominis)
  Antibiotic susceptibility: R
Staphylococcus hominis; Sh3 (Staphylococcus hominis)
  Antibiotic susceptibility: R

## CO[C@H]1/C=C/O[C@@]2(C)Oc3c(C)c(O)c4c(O)c(c(/C=N/N5CCN(C)CC5)c(O)c4c3C2=O)NC(=O)/C(C)=C\C=C\[C@H](C)[C@H](O)[C@@H](C)[C@@H](O)[C@@H](C)[C@H](OC(C)=O)[C@@H]1C [RIF, Rifampin]
[1]; [4]
  Antibiotic susceptibility: S
[1]; [5]
  Antibiotic susceptibility: S
[2]; S. aureus ATCC 25923
  Antibiotic susceptibility: S
[2]; S. aureus ATCC 29213
  Antibiotic susceptibility: S
[2]; S. aureus ATCC BAA 976
  Antibiotic susceptibility: S
[2]; S. aureus ATCC BAA 977
  Antibiotic susceptibility: S
[2]; S. aureus ATCC BAA 1026
  Antibiotic susceptibility: S
[2]; Sa1 (MRSA)
  Antibiotic susceptibility: S
[2]; Sa2 (MRSA)
  Antibiotic susceptibility: S
[2]; Sa3 (MRSA)
  Antibiotic susceptibility: S
[2]; Sa6 (MRSA)
  Antibiotic susceptibility: S
[2]; Sa7 (MRSA)
  Antibiotic susceptibility: S
[2]; Sa9 (MRSA)
  Antibiotic susceptibility: S
[2]; Sa11 (MRSA)
  Antibiotic susceptibility: S
[2]; Sa12 (MRSA)
  Antibiotic susceptibility: S
[2]; Sa14 (MRSA)
  Antibiotic susceptibility: S
[2]; Sa15 (MRSA)
  Antibiotic susceptibility: R
[2]; Sa16 (MRSA)
  Antibiotic susceptibility: S
[2]; Sa17 (MRSA)
  Antibiotic susceptibility: S
[2]; Sa18 (MRSA)
  Antibiotic susceptibility: S
[2]; Sa19 (MRSA)
  Antibiotic susceptibility: S
[2]; Sa20 (MRSA)
  Antibiotic susceptibility: S
[2]; Sa21 (MRSA)
  Antibiotic susceptibility: S
[2]; Sa22 (MRSA)
  Antibiotic susceptibility: S
[2]; Sa23 (MRSA)
  Antibiotic susceptibility: S
[2]; number of resistant strains out of 21 MRSA strains
  MRSA strains resistant: 1/21
[3]
  Antibiotic susceptibility: S
Staphylococcus hominis
  Antibiotic susceptibility: S
